In PubChem BioAssay (NCI):
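How tested: cells in 96-well plates exposed to compound for 48 hours at five concentrations. The concentration for 50% growth inhibition is given as GI50. TGI denotes the concentration required for complete inhibition of growth.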

Legend:
Test in all cases: DTP human tumour cell line panel, 48 h
DU-145 prostate = test system: DU-145 prostate
HS 578T breast = test system: HS 578T breast
IGROV1 ovarian = test system: IGROV1 ovarian
NCI-H226 lung = test system: NCI-H226 lung
NCI/ADR-RES ovarian = test system: NCI/ADR-RES ovarian
RPMI-8226 leukemia = test system: RPMI-8226 leukemia
RXF 393 renal = test system: RXF 393 renal
T-47D breast = test system: T-47D breast
TK-10 renal = test system: TK-10 renal
UACC-257 melanoma = test system: UACC-257 melanoma

| Compound | GI50 (DU-145 prostate) [µM] | TGI (DU-145 prostate) [µM] | GI50 (HS 578T breast) [µM] | TGI (HS 578T breast) [µM] | GI50 (IGROV1 ovarian) [µM] | TGI (IGROV1 ovarian) [µM] | GI50 (NCI-H226 lung) [µM] | TGI (NCI-H226 lung) [µM] | GI50 (NCI/ADR-RES ovarian) [µM] | TGI (NCI/ADR-RES ovarian) [µM] | GI50 (RPMI-8226 leukemia) [µM] | TGI (RPMI-8226 leukemia) [µM] | GI50 (RXF 393 renal) [µM] | TGI (RXF 393 renal) [µM] | GI50 (T-47D breast) [µM] | TGI (T-47D breast) [µM] | GI50 (TK-10 renal) [µM] | TGI (TK-10 renal) [µM] | GI50 (UACC-257 melanoma) [µM] | TGI (UACC-257 melanoma) [µM] |
| --- | --- | --- | --- | --- | --- | --- | --- | --- | --- | --- | --- | --- | --- | --- | --- | --- | --- | --- | --- | --- |
| Cc1ccccc1NC(=O)N/C(N)=N/c1nc(-c2cccc([N+](=O)[O-])c2)cs1 | 3.35 | 65.1 | 2.17 | 7.31 | 1.71 | 11.5 | 2.17 | 7.02 | 1.82 | 7.22 | 3.09 | > 100 | 1.78 | 4.33 | 3.2 | > 100 | 5.33 | 14.6 | 4.85 | > 100 |
| CCN1CCN(C(=O)[C@]23CC[C@@H](C)[C@H](C)[C@@H]2C2=CC[C@@H]4[C@@]5(C)C/C(=C/c6ccncc6)C(=O)C(C)(C)[C@@H]5CC[C@@]4(C)[C@]2(C)CC3)CC1 | 1.87 | 3.43 | 1.81 | 4.3 | 1.7 | 3.36 | 1.75 | 3.64 | 1.7 | 3.69 | 1.88 | 5.91 | 1.39 | 2.79 | 1.56 | 3.49 | 1.73 | 3.31 | 1.84 | 3.92 |
| CCOC(=O)Nc1nc2ccc(Cn3cccc3)cc2[nH]1 |  | > 52.5 |  | > 100 |  | > 100 |  | 32.1 |  | 21.2 |  | > 100 |  | > 22.3 |  | > 100 |  | > 100 |  | 26.2 |
| NOCC(=O)O | > 100 | > 100 | 71.1 | > 100 | > 100 | > 100 | > 100 | > 100 | > 100 | > 100 | 58 | > 100 | > 100 | > 100 | > 100 | > 100 | > 100 | > 100 | > 100 | > 100 |
| COc1ccc(CN(C)c2ccc(CO)c(Cl)c2)cc1 | 34.2 | > 100 | 38.4 | > 100 | 0.405 | 3.3 | 0.125 | 0.279 | 15.9 | 55.3 | 9.71 | > 65.4 | 10.9 | > 79.8 | 0.513 | 3.82 | 0.179 | 0.793 | 0.318 | 1.22 |
| O=C1c2ccccc2C(=O)N1CCCSc1ccccc1 |  | > 100 |  | > 100 |  | > 100 |  | > 100 |  | > 100 |  | > 100 |  | > 100 |  | > 100 |  | > 100 |  | > 100 |
| COc1cc(C(=O)/C(C)=C/c2c[nH]c3ccccc23)cc(OC)c1OC | 0.00383 | > 100 | 0.00478 | 48 | 0.00566 | > 100 |  | > 100 | 0.00322 | > 100 | 0.00482 | 4.55 | 1.81 | > 100 | 2.46 | > 100 |  | 12.4 |  |  |
| CC(=O)CC(=O)Nc1ccc2ccccc2c1 |  | > 100 |  | > 100 |  | > 100 |  | > 100 |  | > 100 |  | > 100 |  | > 100 |  | > 100 |  | > 100 |  | > 100 |
| ClCc1cccc(Cn2cnc3c(NC45CC6CC(CC(C6)C4)C5)ncnc32)c1 | 17.3 | 46.6 | 23.4 | 68.2 | 18.3 | 45.8 | 22.9 | 69.2 | 16.2 | 41.9 | 10.8 | > 53.2 | 11.4 | 36.7 | 15.1 | 36.6 | 20.5 | 44.7 | 16 | 37.4 |
| COc1ccc([N+](=O)[O-])c2c(NCCCN(C)C)c3ccccc3nc12 |  | 1.79 |  | 4.29 |  | 0.234 |  | 0.862 |  | 23.5 |  | 2.17 |  | 0.253 |  | 3.95 |  | 2.43 |  | 0.531 |
| COc1cc(OC)cc(C2CC(=O)Nc3c2c(C)nn3-c2nc3ccccc3[nH]2)c1 (stereo not given) | 3.73 | 17.1 | 3.06 | 39.9 | 2.74 | 7.76 | 2.52 | 6.38 | 4.47 | > 100 | 2.64 | 6.29 | 3.21 | 24.6 | 3.5 | > 100 | 3.04 | 45.5 | 2.64 | 7.32 |
| CC(=O)c1c(C)[nH]c(-c2nc3ccc(N4CCN(C)CC4)cc3[nH]2)c1-c1ccc(OCC2CCOCC2)cc1 | 5.09 | 24.8 | 0.346 | 8.71 | 0.854 | 12.8 | 1.87 | 21.2 | 1.02 | 30.5 | 0.251 | 1.42 | 0.696 | 2.83 | 0.445 | 20.6 | 0.306 | 16.8 | 0.789 | 4.42 |
| O=c1ccn(C2OC(CO)C(O)C2F)c(=O)[nH]1 (stereo not given) | > 1000 | > 1000 | > 1000 | > 1000 | > 1000 | > 1000 | > 1000 | > 1000 | > 1000 | > 1000 | > 1000 | > 1000 | > 1000 | > 1000 | > 1000 | > 1000 | > 1000 | > 1000 | > 1000 | > 1000 |
| O=C1c2ccccc2-c2c1c1ccccc1c(=O)n2CCCNCCCn1ccnc1 | 0.318 | 2.07 | 0.545 | 5 | 0.442 |  | 0.186 | 0.436 | 1.66 | 4.45 | 0.195 | 1.02 | 1.48 | 4.31 | 5.78 | 21.1 | 1.89 | 9.73 | 4.62 | 23.1 |
